# Source: PMC8308736, “Functional Characterization of the Oxantel-Sensitive Acetylcholine Receptor from Trichuris muris” (Pharmaceuticals, 2021)
# Like-named read-outs stand apart in the source and are kept apart here.
# Columns and labels:
# [1] = target: T1, Tmu-ACR-16-like (Trichuris muris, UniProt A0A5S6R3I6); test: two-electrode voltage-clamp in Xenopus oocytes co-injected with Xla-ric-3; format: cell-based
# T1 construct: full-length subunit (464 amino acids; GenBank MZ322663), homomeric receptor in Xenopus laevis oocytes
# T1 sequence (A0A5S6R3I6 entry or part of it): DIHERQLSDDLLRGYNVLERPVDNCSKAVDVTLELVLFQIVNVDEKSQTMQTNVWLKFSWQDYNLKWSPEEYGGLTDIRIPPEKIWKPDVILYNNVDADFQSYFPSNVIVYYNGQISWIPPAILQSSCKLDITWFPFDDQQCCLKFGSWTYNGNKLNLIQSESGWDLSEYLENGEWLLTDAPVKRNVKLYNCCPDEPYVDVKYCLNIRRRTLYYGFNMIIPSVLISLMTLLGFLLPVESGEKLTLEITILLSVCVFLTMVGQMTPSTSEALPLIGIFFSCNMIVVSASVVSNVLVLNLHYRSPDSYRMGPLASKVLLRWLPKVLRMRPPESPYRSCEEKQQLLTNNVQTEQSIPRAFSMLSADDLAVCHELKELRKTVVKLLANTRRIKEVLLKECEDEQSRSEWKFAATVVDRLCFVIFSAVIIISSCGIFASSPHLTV
# [2] = target: T2, Tsu-ACR-16-like (Trichuris suis, UniProt A0A890W0I7); test: as above; format: cell-based
# T2 construct: ACR-16-like subunit (GenBank MT386096), homomeric receptor in Xenopus laevis oocytes
# T2 sequence (A0A890W0I7 22-461): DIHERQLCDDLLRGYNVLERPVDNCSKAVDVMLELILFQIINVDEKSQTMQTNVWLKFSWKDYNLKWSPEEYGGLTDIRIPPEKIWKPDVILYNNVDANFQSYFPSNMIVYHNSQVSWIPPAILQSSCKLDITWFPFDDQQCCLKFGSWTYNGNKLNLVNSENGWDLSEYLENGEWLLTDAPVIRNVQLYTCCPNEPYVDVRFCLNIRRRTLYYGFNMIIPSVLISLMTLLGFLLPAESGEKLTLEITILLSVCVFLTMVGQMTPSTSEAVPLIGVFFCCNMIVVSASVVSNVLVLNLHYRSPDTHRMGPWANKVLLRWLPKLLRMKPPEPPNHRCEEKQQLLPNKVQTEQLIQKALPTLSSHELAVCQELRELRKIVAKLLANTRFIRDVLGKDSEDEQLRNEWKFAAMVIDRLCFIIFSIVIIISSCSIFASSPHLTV
Structure (SMILES),EC50 ([1]; read-out: EC50) [µM],EC50 [2] [µM],EC50 [1] [µM]
CC(=O)OCC[N+](C)(C)C [acetylcholine],31.1 ± 0.3,–,–
Clc1ccc(C2CC3CCC2N3)cn1 (stereo not shown) [epibatidine],–,1.9 ± 0.5,1.7 ± 0.4
CN1CCCN=C1/C=C/c1cccc(O)c1 [oxantel],32.7 ± 0.3,–,–
